How the values were obtained:
Test in all cases: relative viability (nuclei count vs DMSO), 5 days (fraction); higher = more cells survive
[1] = compound: CC1=CN=C(N=C1C2=CNC(=C2)C(=O)N[C@H](CO)C3=CC(=CC=C3)Cl)NC4=C(C=C(C=C4)F)Cl [VX-11e]
Outline: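 Nuclei counted with MetaXpress define viability as the ratio of treated to vehicle wells, given as a median across plates. The lung cancer cell lines were in 1536-well plates, pinned with five √10-spaced library-drug doses and imaged at 4× after 5 days and Hoechst staining. Plates passed with control CV below 25% and at least one doubling.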

[2] = compound: CC1=CN=C(N=C1C2=CNC(=C2)C(=O)N[C@H](CO)C3=CC(=CC=C3)Cl)NC4=C(C=C(C=C4)F)Cl [VX-11e] + CC1(C)CCC(c2ccc(Cl)cc2)=C(CN2CCN(c3ccc(C(=O)NS(=O)(=O)c4ccc(N[C@H](CCN5CCOCC5)CSc5ccccc5)c(S(=O)(=O)C(F)(F)F)c4)cc3)CC2)C1 [Navitoclax] (partner 0.5 µM)
Outline: (§1)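 Relative viability divides the nuclei count in treated wells by that in vehicle wells. Lung cancer cell lines were seeded in 1536-well plates, dosed by pin tool the next day, and fixed and stained after 5 days in one step with final 0.05% Triton X-100, 1% formaldehyde and 1 ug/ml Hoechst. Dosing was a single drug or a fixed anchor-drug dose plus five library-drug doses (not always all listed) in √10 steps, and values are medians of duplicate plates imaged at 4×.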

[3] = compound: CC1=CN=C(N=C1C2=CNC(=C2)C(=O)N[C@H](CO)C3=CC(=CC=C3)Cl)NC4=C(C=C(C=C4)F)Cl [VX-11e] + COc1cc2c(Oc3ccc(NC(=O)C4(C(=O)Nc5ccc(F)cc5)CC4)cc3F)ccnc2cc1OCCCN1CCOCC1 [Foretinib] (partner 0.25 µM)
Outline: as §1

[4] = compound: CC1=CN=C(N=C1C2=CNC(=C2)C(=O)N[C@H](CO)C3=CC(=CC=C3)Cl)NC4=C(C=C(C=C4)F)Cl [VX-11e] + CS(=O)(=O)CCNCc1ccc(-c2ccc3ncnc(Nc4ccc(OCc5cccc(F)c5)c(Cl)c4)c3c2)o1 [Lapatinib] (partner 2 µM)
Outline: as §1

[5] = compound: CC1=CN=C(N=C1C2=CNC(=C2)C(=O)N[C@H](CO)C3=CC(=CC=C3)Cl)NC4=C(C=C(C=C4)F)Cl [VX-11e] + CS(=O)(=O)N1CCN(Cc2cc3nc(-c4cccc5[nH]ncc45)nc(N4CCOCC4)c3s2)CC1 [Pictilisib] (partner 1 µM)
Outline: as §1

[6] = compound: CC1=CN=C(N=C1C2=CNC(=C2)C(=O)N[C@H](CO)C3=CC(=CC=C3)Cl)NC4=C(C=C(C=C4)F)Cl [VX-11e] + C[C@@H](Oc1cc(-c2cnn(C3CCNCC3)c2)cnc1N)c1c(Cl)ccc(F)c1Cl [Crizotinib] (partner 1 µM)
Outline: as §1

[7] = compound: CC1=CN=C(N=C1C2=CNC(=C2)C(=O)N[C@H](CO)C3=CC(=CC=C3)Cl)NC4=C(C=C(C=C4)F)Cl [VX-11e] + C[C@]1(O)C[C@@H](c2nc(-c3ccc4ccc(-c5ccccc5)nc4c3)c3c(N)nccn32)C1 [Linsitinib] (partner 1 µM)
Outline: as §1

[8] = compound: CC1=CN=C(N=C1C2=CNC(=C2)C(=O)N[C@H](CO)C3=CC(=CC=C3)Cl)NC4=C(C=C(C=C4)F)Cl [VX-11e] + Cc1nc(NC(=O)N2CCC[C@H]2C(N)=O)sc1-c1ccnc(C(C)(C)C(F)(F)F)c1 [Alpelisib] (partner 2 µM)
Outline: as §1

[9] = compound: CC1=CN=C(N=C1C2=CNC(=C2)C(=O)N[C@H](CO)C3=CC(=CC=C3)Cl)NC4=C(C=C(C=C4)F)Cl [VX-11e] + N=C(N)NC(=N)NCCc1ccccc1 [Phenformin] (partner 250 µM)
Outline: as §1

[10] = compound: CC1=CN=C(N=C1C2=CNC(=C2)C(=O)N[C@H](CO)C3=CC(=CC=C3)Cl)NC4=C(C=C(C=C4)F)Cl [VX-11e] + Nc1ncn([C@H]2C[C@H](O)[C@@H](CO)O2)c(=O)n1 [Decitabine] (partner 2 µM)
Outline: as §1

[11] = compound: CC1=CN=C(N=C1C2=CNC(=C2)C(=O)N[C@H](CO)C3=CC(=CC=C3)Cl)NC4=C(C=C(C=C4)F)Cl [VX-11e] + O=C(c1cc(Cc2n[nH]c(=O)c3ccccc23)ccc1F)N1CCN(C(=O)C2CC2)CC1 [Olaparib] (partner 8 µM)
Outline: as §1

[12] = compound: CC1=CN=C(N=C1C2=CNC(=C2)C(=O)N[C@H](CO)C3=CC(=CC=C3)Cl)NC4=C(C=C(C=C4)F)Cl [VX-11e] + CC(C)C[C@H](NC(=O)[C@H](Cc1ccccc1)NC(=O)c1cnccn1)B(O)O [Bortezomib] (partner 0.002 µM)
Outline: as §1

[13] = compound: CC1=CN=C(N=C1C2=CNC(=C2)C(=O)N[C@H](CO)C3=CC(=CC=C3)Cl)NC4=C(C=C(C=C4)F)Cl [VX-11e] + O=C(CCCCCCC(=O)Nc1ccccc1)NO [Vorinostat] (partner 1 µM)
Outline: as §1

A549
relative viability ([1]; 0.04 µM): 0.98
relative viability ([1]; 0.1265 µM): 0.868
relative viability ([1]; 0.4 µM): 0.806
relative viability ([1]; 1.265 µM): 0.671
relative viability ([1]; 4 µM): 0.122
relative viability ([2]; first compound 0.04 µM): 1.22
relative viability ([2]; first compound 0.1265 µM): 1.11
relative viability ([2]; first compound 0.4 µM): 0.984
relative viability ([2]; first compound 1.265 µM): 0.257
relative viability ([2]; first compound 4 µM): 0.111
relative viability ([3]; first compound 0.04 µM): 1.02
relative viability ([3]; first compound 0.1265 µM): 0.973
relative viability ([3]; first compound 0.4 µM): 0.922
relative viability ([3]; first compound 1.265 µM): 0.321
relative viability ([3]; first compound 4 µM): 0.0913
relative viability ([4]; first compound 0.04 µM): 0.898
relative viability ([4]; first compound 0.1265 µM): 0.903
relative viability ([4]; first compound 0.4 µM): 0.832
relative viability ([4]; first compound 1.265 µM): 0.211
relative viability ([4]; first compound 4 µM): 0.135
relative viability ([5]; first compound 0.04 µM): 0.481
relative viability ([5]; first compound 0.1265 µM): 0.475
relative viability ([5]; first compound 0.4 µM): 0.316
relative viability ([5]; first compound 1.265 µM): 0.0889
relative viability ([5]; first compound 4 µM): 0.0408
relative viability ([6]; first compound 0.04 µM): 0.826
relative viability ([6]; first compound 0.1265 µM): 0.786
relative viability ([6]; first compound 0.4 µM): 0.601
relative viability ([6]; first compound 1.265 µM): 0.207
relative viability ([6]; first compound 4 µM): 0.0915
relative viability ([7]; first compound 0.04 µM): 0.548
relative viability ([7]; first compound 0.1265 µM): 0.485
relative viability ([7]; first compound 0.4 µM): 0.448
relative viability ([7]; first compound 1.265 µM): 0.31
relative viability ([7]; first compound 4 µM): 0.169
relative viability ([8]; first compound 0.04 µM): 0.737
relative viability ([8]; first compound 0.1265 µM): 0.622
relative viability ([8]; first compound 0.4 µM): 0.451
relative viability ([8]; first compound 1.265 µM): 0.313
relative viability ([8]; first compound 4 µM): 0.0519
relative viability ([9]; first compound 0.04 µM): 0.151
relative viability ([9]; first compound 0.1265 µM): 0.155
relative viability ([9]; first compound 0.4 µM): 0.0307
relative viability ([9]; first compound 1.265 µM): 0.279
relative viability ([9]; first compound 4 µM): 0.0557
relative viability ([10]; first compound 0.1265 µM): 0.264
relative viability ([10]; first compound 0.4 µM): 0.0929
relative viability ([10]; first compound 1.265 µM): 0.249
relative viability ([10]; first compound 4 µM): 0.202
relative viability ([11]; first compound 0.04 µM): 0.237
relative viability ([11]; first compound 0.1265 µM): 0.246
relative viability ([11]; first compound 0.4 µM): 0.0406
relative viability ([11]; first compound 1.265 µM): 0.184
relative viability ([11]; first compound 4 µM): 0.0866

IA-LM
relative viability ([1]; 0.04 µM): 0.767
relative viability ([1]; 0.1265 µM): 0.916
relative viability ([1]; 0.4 µM): 0.913
relative viability ([1]; 1.265 µM): 0.468
relative viability ([1]; 4 µM): 0.129
relative viability ([12]; first compound 0.04 µM): 0.959
relative viability ([12]; first compound 0.1265 µM): 0.941
relative viability ([12]; first compound 0.4 µM): 0.927
relative viability ([12]; first compound 1.265 µM): 0.306
relative viability ([12]; first compound 4 µM): 0.105
relative viability ([2]; first compound 0.04 µM): 0.899
relative viability ([2]; first compound 0.1265 µM): 0.891
relative viability ([2]; first compound 0.4 µM): 0.844
relative viability ([2]; first compound 1.265 µM): 0.415
relative viability ([2]; first compound 4 µM): 0.0436
relative viability ([3]; first compound 0.04 µM): 1.09
relative viability ([3]; first compound 0.1265 µM): 1.17
relative viability ([3]; first compound 0.4 µM): 1.22
relative viability ([3]; first compound 1.265 µM): 0.486
relative viability ([3]; first compound 4 µM): 0.0917
relative viability ([4]; first compound 0.04 µM): 0.71
relative viability ([4]; first compound 0.1265 µM): 0.945
relative viability ([4]; first compound 0.4 µM): 0.853
relative viability ([4]; first compound 1.265 µM): 0.17
relative viability ([4]; first compound 4 µM): 0.126
relative viability ([5]; first compound 0.04 µM): 0.327
relative viability ([5]; first compound 0.1265 µM): 0.263
relative viability ([5]; first compound 0.4 µM): 0.199
relative viability ([5]; first compound 1.265 µM): 0.0879
relative viability ([5]; first compound 4 µM): 0.0695
relative viability ([6]; first compound 0.04 µM): 0.931
relative viability ([6]; first compound 0.1265 µM): 0.961
relative viability ([6]; first compound 0.4 µM): 0.697
relative viability ([6]; first compound 1.265 µM): 0.271
relative viability ([6]; first compound 4 µM): 0.116
relative viability ([7]; first compound 0.04 µM): 0.694
relative viability ([7]; first compound 0.1265 µM): 0.516
relative viability ([7]; first compound 0.4 µM): 0.469
relative viability ([7]; first compound 1.265 µM): 0.132
relative viability ([7]; first compound 4 µM): 0.142
relative viability ([8]; first compound 0.04 µM): 0.855
relative viability ([8]; first compound 0.1265 µM): 0.734
relative viability ([8]; first compound 0.4 µM): 0.756
relative viability ([8]; first compound 1.265 µM): 0.387
relative viability ([8]; first compound 4 µM): 0.143
relative viability ([13]; first compound 0.04 µM): 1.07
relative viability ([13]; first compound 0.1265 µM): 0.814
relative viability ([13]; first compound 0.4 µM): 0.941
relative viability ([13]; first compound 1.265 µM): 0.668
relative viability ([13]; first compound 4 µM): 0.302
relative viability ([11]; first compound 0.04 µM): 0.877
relative viability ([11]; first compound 0.1265 µM): 0.864
relative viability ([11]; first compound 0.4 µM): 0.963
relative viability ([11]; first compound 1.265 µM): 0.536
relative viability ([11]; first compound 4 µM): 0.173

Source: the supplement of paper PMC10307832
